From US6617335B1, “Preparation and drug composition of bis-benzyl-isoquinoline class alkaloids” (Kanghong USA, Inc., priority 2002, dated 2003)

Assays:
P388/adr [1] = assay: In vivo study of inhibition of MDR activity, nude mice xenografted with P388/adr
Procedure: Method: Using defined characteristics of […] P388/adr cell line in a nude mice model to determine the inhibition of MDR activity. Quantitative subcutaneous injection of P388 cell into the armpit of nude mice was followed for a certain period of time. […] The formulations and a cepharanthine control were administered by intraperitoneal injection for 2 to 4 times a day, and the animals consecutively observed for 10 days. Life span and survival rates were calculated.

P388/adr cell line = assay: Isotopic determination of vincristine concentration in the P388/adr cell line; assay type: cell-based; settings: P388/adr MDR cells; for inhibition of MDR activity / intracellular isotope marker concentration compared with verapamil: three levels; for intracellular vinca alkaloid concentration, combined therapy vs other known MDR inhibitors (tetrandrine, fangchinoline, cepharanthine): low, middle and high dosages
Procedure: Method: By using an isotope marker, differences were observed between intracellular vincristine concentrations during combined therapy and single therapy. […] The dosages were arranged in low, middle and high groups in parallel studies, results were calculated in dpm of vincristine concentration in the cell.

in vivo = assay: in vivo
Procedure: Method: LDs50 values for the compounds of formula (I) were calculated according to the method of Gaddum and Gu Han Yi.

[2] = test system: Salmonella typhimurium TA97, TA98, TA100 and TA102; assay: Mutagenicity test (Ames method); settings: plate method, dosages 100, 20, 4, 0.8, 0.16
Procedure: Determinations were carried out the using Salmonella typhimurium […] mutants types TA97, TA98, TA100 and TA102 to detect the mutagenicity of said compound. Mutagenicity was determined according to the method of Ames. (Ames, B., et al. (1973). An improved bacterial test system for the detection and classification of mutagens and carcinogens. Proc. Natl. Acad. Sci. USA 70: 782-786). In the plate method with dosages of 100, 20, 4, 0.8, and 0.16, compared with the blank control, (self made compound S9), counting the number of reversed mutative colony changed, to decide the mutagenicity of the test compound.

P388/adr [3] = assay: In vitro reversal of multi drug resistance to vinblastine in P388/adr cells; assay type: cell-based; settings: vinblastine against multi drug resistance cell line P388/adr
Procedure: The IC50 value was in the range of 2-3 μg/mL, the reversal index against P388 was around 20, and most of the compounds completely reversed multi drug resistance of vinblastine-treated tumor cells.

## COc1cc(Br)c2cc1Oc1ccc(cc1)C[C@H]1c3cc(c(OC)cc3CCN1C)Oc1c(OC)c(OC)c(Br)c3c1[C@H](C2)N(C)CC3 [Example 9, 5,14-dibromo-tetrandrine]
other
  melting point: 184 to 185 °C

## COc1ccc2cc1Oc1ccc(cc1)C[C@H]1c3cc(c(OC)cc3CCN1C)Oc1c(OC)c(OC)c(Br)c3c1[C@H](C2)N(C)CC3 [Example 8, 5-bromo-tetrandrine]
P388/adr [1]
  inhibition of MDR activity of vinblastine against P388/adr compared with cepharanthine (VIII): significantly stronger
P388/adr [1]; combined therapy with vinca alkaloid vs monotherapy, intraperitoneal, observed 10 days
  increase of survival rates by the combined therapy: 37.7%
P388/adr cell line
  inhibition of MDR activity / intracellular isotope marker concentration compared with verapamil: corresponding to verapamil
P388/adr cell line; listed as Example No. 8
  inhibition of MDR activity / intracellular isotope marker concentration compared with verapamil: comparable to the available agent verapamil
P388/adr cell line; isotope marker
  intracellular vinca alkaloid concentration, combined therapy vs monotherapy: significantly higher
  intracellular vinca alkaloid concentration, combined therapy vs other known MDR inhibitors (tetrandrine, fangchinoline, cepharanthine): significantly higher
P388/adr cell line; isotope marker, listed as Example No. 8
  intracellular vinca alkaloid concentration, combined therapy vs other known MDR inhibitors (tetrandrine, fangchinoline, cepharanthine): higher
In vivo; in vivo, route not stated at this place, read-out: acute toxicity LD50
  LD50 at 1 month: > 125 mg/kg
In vivo; intraperitoneal
  LDs50, intraperitoneal administration: > 368 mg/kg bodyweight
In vivo; intravenous
  LDs50, intravenous administration: > 125 mg/kg bodyweight
[2]
  mutagenicity (Ames): void of mutagenicity

## CCCOc1c(OC)cc2c3c1Oc1cc4c(cc1OC)CCN(C)[C@H]4Cc1ccc(cc1)Oc1cc(ccc1OC)C[C@@H]3N(C)CC2
other
  melting point: 175 to 176 °C

## cepharanthine
P388/adr [3]
  IC50 value: 11.7 mg/L
